Reference: patent US20210047324A1 (Aptinyx Inc., priority 2018, published 2021)

Tests used:
NMDAR2B = target: T1, NMDAR2B (Homo sapiens, UniProt Q13224); assay: NMDAR agonist assay, [3H]MK-801 binding, NMDAR2B expressing HEK cell membranes; format: biochemical; settings: 50 μM glutamate; read-out: NMDAR2B B: log EC50 (converted)
T1 construct: expressed in transfected cells; host or cells: HEK cells (membrane extract)
In short: (§1)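 Membranes from HEK cells (300 μg protein) preincubated 15 min with 50 μM glutamate plus compound (1×10^−15–1×10^−7 M) or 1 mM glycine, then with 0.3 μCi [3H]MK-801 for 15 min at 25° C. (nonequilibrium); filter-bound DPM, baseline-subtracted, expressed as % of 1 mM glycine; EC50 and % maximum from three-parameter fit.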

[1] = Oral pharmacokinetics in Sprague Dawley rats (plasma, brain, CSF); format: in vivo; settings: rat, 10 mg/kg
Procedure: In another experiment, Sprague Dawley rats were dosed per os (oral gavage) using a normal saline formulation containing 10 mg/kg of the compounds identified in the table below. Plasma, brain, and CSF samples were analyzed at various time points over a 24 hour period. The table below summarizes the results of the oral pharmacokinetics, where the first three values (Tmax, Cmax and AUClast) are plasma values.

Plasma stability (Human) = format: in vitro ADME; settings: after 60 minutes
Procedure: (§2) Plasma stability of disclosed compounds was investigated. The following table indicates the percent of compound remaining after 60 minutes.

NMDAR2D [2] = target: T2, NMDAR2D (Homo sapiens, UniProt O15399); assay: NMDAR agonist assay, [3H]MK-801 binding, NMDAR2D expressing HEK cell membranes; format: biochemical; settings: 50 μM glutamate; relative to 1 mM glycine
T2 construct: expressed in transfected cells; host or cells: HEK cells (membrane extract)
T2 sequence (O15399 28-1336, species assumed, other chains not shown): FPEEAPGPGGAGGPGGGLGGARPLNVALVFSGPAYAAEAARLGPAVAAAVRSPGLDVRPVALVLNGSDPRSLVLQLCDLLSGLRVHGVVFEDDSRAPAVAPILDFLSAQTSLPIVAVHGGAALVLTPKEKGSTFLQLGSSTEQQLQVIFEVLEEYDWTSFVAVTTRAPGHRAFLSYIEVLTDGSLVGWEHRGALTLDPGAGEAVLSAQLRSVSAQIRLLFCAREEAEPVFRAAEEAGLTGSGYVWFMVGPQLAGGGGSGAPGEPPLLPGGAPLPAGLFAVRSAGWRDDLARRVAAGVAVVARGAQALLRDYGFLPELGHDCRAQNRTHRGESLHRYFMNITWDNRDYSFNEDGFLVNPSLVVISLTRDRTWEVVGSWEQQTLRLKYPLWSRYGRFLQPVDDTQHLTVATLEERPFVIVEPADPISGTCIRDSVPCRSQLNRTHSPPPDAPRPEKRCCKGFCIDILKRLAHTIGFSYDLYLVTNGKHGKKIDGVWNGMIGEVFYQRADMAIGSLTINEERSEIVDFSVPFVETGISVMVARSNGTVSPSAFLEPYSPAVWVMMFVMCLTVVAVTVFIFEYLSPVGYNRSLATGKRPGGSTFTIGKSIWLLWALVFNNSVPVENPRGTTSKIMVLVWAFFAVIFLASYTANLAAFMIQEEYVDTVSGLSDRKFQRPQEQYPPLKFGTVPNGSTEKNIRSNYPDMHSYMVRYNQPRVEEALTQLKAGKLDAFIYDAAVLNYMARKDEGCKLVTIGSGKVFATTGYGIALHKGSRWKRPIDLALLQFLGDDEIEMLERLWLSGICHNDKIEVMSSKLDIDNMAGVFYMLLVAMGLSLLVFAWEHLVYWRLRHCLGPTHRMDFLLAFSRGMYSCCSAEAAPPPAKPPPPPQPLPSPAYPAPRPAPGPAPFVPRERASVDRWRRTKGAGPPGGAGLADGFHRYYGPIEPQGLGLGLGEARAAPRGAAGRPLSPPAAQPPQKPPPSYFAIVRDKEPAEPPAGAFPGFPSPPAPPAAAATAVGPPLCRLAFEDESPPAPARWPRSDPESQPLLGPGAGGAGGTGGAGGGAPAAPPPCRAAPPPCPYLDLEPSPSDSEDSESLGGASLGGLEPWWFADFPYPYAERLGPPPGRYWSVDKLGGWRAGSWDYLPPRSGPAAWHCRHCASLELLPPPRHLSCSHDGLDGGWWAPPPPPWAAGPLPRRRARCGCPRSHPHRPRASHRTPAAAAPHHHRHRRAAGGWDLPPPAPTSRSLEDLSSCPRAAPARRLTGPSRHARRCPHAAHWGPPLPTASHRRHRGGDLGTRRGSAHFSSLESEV
Procedure: (§3) Assays were conducted as described by Moskal et al., “GLYX-13: a monoclonal antibody-derived peptide that acts as an N-methyl-D-aspartate receptor modulator,” Neuropharmacology, 49, 1077-87, 2005. These studies were designed to determine if the test compounds act to facilitate NMDAR activation in NMDAR2A, NMDAR2B, NMDAR2C or NMDAR2D expressing HEK cell membranes as measured by increases in [^3H]MK-801 binding.
(§4) In the assay, 300 μg of NMDAR expressing HEK cell membrane extract protein was preincubated for 15 minutes at […] in the presence of saturating concentrations of glutamate (50 μM) and varying concentrations of test compound (1×10^−15M-1×10^−7M), or 1 mM glycine. Following the addition of 0.3 μCi of [3H]MK-801 (22.5 Ci/mmol), reactions were again incubated for 15 minutes at 25° C. (nonequilibrium conditions). Bound and free [3H]MK-801 were separated via rapid filtration using a Brandel apparatus.
(§5) In analyzing the data, the DPM (disintegrations per minute) of [3H]MK-801 remaining on the filter were measured for each concentration of test compound or for 1 mM glycine. The DPM values for each concentration of a ligand (N=2) were averaged. The baseline value was determined from the best fit curve of the DPM values modeled using the GraphPad program and the log(agonist) vs. response (three parameters) algorithm was then subtracted from all points in the dataset. The % maximal [^3H]MK-801 binding was then calculated relative to that of 1 mM glycine: all baseline subtracted DPM values were divided by the average value for 1 mM glycine. The EC50 and % maximal activity were then obtained from the best fit curve of the % maximal [3H]MK-801 binding data modelled using the GraphPad program and the log(agonist) vs. response (three parameters) algorithm.
(§6) The tables below summarize the results for the wild type […] NMDAR2A, NMDAR2B, NMDAR2C, and NMDAR2D, and whether the compound is not an agonist (−), is an agonist (+), or is a strong agonist (++), where column A is based on the % maximal [3H]MK-801 binding relative to 1 mM glycine (−=0; <100%=+; and >100%=++); and column B is based on log EC50 values (0=−; ≥1×10^−9 M (e.g., −8)=+; and <1×10^−9 M (e.g., −10)=++).

NMDAR2D [3] = target: T3, NMDAR2D (Homo sapiens, UniProt O15399+Q05586); assay: as above; format: biochemical; settings: 50 μM glutamate; read-out: NMDAR2D B: log EC50 (converted)
T3 construct: expressed in transfected cells; host or cells: HEK cells (membrane extract)
T3 sequence (O15399 28-1336, species assumed, other chains not shown): as above
Procedure: as §3, §4, §5, §6

Sprague Dawley rats = assay: Porsolt forced swim test; format: in vivo; settings: 0.1 mg/kg
[4] = Microsomal stability (Human); format: in vitro ADME; settings: after 60 minutes
Procedure: (§7) Microsomal stability of disclosed compounds was investigated. The following table indicates the percent of compound remaining after 60 minutes.

[5] = Microsomal stability (Rat); format: in vitro ADME; settings: after 60 minutes
Procedure: as §7

NMDAR2A = target: T4, NMDAR2A (Homo sapiens, UniProt Q12879); assay: NMDAR agonist assay, [3H]MK-801 binding, NMDAR2A expressing HEK cell membranes; format: biochemical; design: key to NMDAR2A B: log EC50: 0=−; ≥1×10^−9 M (e.g., −8)=+; <1×10^−9 M (e.g., −10)=++; settings: 50 μM glutamate
T4 construct: expressed in transfected cells; host or cells: HEK cells (membrane extract)
T4 sequence (Q12879 23-1464, species assumed, other chains not shown): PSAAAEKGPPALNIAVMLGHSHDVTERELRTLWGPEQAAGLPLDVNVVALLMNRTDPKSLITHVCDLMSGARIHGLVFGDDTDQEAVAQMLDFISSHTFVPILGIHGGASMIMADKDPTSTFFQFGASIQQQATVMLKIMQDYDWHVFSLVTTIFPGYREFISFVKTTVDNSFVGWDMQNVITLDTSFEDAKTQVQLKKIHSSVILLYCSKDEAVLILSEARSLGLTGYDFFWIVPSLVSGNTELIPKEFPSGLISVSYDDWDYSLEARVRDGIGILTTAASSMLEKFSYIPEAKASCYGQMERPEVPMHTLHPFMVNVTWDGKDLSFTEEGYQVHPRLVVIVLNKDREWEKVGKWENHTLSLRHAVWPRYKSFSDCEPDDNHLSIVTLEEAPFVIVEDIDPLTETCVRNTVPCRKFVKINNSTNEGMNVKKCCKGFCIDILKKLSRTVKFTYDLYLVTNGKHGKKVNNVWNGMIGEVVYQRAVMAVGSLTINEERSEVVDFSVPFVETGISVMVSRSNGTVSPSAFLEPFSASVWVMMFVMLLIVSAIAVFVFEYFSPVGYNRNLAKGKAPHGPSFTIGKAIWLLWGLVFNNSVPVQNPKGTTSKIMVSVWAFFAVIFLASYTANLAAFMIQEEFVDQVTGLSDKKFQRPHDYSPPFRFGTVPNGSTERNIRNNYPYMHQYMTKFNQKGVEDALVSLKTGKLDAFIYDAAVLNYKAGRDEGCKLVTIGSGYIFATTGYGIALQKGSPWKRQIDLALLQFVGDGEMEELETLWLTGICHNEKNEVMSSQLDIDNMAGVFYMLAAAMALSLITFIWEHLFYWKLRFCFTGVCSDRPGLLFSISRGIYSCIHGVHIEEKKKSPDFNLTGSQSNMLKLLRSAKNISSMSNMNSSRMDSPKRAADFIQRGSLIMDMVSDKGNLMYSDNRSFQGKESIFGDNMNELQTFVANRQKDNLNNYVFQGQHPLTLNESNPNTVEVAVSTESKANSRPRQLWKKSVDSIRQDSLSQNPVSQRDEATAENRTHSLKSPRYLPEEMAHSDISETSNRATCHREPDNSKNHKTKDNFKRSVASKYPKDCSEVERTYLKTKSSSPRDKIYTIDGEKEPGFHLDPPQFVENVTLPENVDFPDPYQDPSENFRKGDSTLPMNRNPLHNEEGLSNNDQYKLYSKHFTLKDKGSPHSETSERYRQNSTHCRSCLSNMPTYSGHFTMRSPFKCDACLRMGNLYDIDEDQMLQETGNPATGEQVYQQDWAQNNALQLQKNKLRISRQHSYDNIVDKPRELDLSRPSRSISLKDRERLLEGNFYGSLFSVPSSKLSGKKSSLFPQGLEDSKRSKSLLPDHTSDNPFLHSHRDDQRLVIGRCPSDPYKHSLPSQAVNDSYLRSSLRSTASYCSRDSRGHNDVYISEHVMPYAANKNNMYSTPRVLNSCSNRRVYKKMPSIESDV
In short: as §1

Plasma stability (Rat) = format: in vitro ADME; settings: after 60 minutes
Procedure: as §2

NMDAR2C = target: T5, NMDAR2C (Homo sapiens, UniProt Q14957); assay: NMDAR agonist assay, [3H]MK-801 binding, NMDAR2C expressing HEK cell membranes; format: biochemical; settings: 50 μM glutamate
T5 construct: expressed in transfected cells; host or cells: HEK cells (membrane extract)
T5 sequence (Q14957 20-1233, species assumed, other chains not shown): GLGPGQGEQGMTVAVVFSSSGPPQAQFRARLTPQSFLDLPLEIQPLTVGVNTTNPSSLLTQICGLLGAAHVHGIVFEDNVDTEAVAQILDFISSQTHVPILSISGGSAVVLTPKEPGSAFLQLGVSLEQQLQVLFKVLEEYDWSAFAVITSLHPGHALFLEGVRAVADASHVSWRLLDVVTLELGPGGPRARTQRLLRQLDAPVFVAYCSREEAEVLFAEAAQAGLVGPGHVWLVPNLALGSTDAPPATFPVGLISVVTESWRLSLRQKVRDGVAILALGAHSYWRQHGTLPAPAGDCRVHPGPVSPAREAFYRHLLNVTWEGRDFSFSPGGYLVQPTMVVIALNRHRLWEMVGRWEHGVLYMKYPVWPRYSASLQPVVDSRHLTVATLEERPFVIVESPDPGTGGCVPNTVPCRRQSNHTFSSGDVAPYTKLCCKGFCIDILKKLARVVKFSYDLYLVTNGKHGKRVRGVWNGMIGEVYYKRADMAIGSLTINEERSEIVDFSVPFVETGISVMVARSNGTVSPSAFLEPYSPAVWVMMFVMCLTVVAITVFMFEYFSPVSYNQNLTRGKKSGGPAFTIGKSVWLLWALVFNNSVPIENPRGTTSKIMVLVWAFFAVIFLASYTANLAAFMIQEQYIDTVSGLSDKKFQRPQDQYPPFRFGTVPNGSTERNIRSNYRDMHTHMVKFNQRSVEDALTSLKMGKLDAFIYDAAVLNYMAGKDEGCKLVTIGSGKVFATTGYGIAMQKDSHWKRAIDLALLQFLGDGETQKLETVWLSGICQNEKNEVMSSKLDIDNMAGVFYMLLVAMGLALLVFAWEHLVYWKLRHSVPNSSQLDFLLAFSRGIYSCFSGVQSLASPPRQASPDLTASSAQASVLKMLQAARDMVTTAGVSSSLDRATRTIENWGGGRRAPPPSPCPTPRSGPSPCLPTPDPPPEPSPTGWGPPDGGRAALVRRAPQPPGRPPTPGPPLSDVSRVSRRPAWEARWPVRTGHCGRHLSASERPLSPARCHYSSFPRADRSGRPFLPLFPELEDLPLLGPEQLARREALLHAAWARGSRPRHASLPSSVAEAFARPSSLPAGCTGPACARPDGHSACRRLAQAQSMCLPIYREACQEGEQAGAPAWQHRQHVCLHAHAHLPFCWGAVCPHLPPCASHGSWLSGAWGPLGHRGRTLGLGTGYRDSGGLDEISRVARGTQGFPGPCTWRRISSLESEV
Procedure: as §3, §4, §5, §6

[6] = IV pharmacokinetics in Sprague Dawley rats; format: in vivo; settings: Sprague-Dawley, rat, in vivo, iv, 2 mg/kg, normal saline
Procedure: Sprague Dawley rats were dosed intravenously using a normal saline formulation containing 2 mg/kg of the compounds identified in the below table. The table below summarizes the results of the IV pharmacokinetics.

O=C1NCCCC12CCCN2 (stereo not shown) [EU-2, 1,7-diazaspiro[4.5]decan-6-one]
EC50 (NMDAR2B): < 1 nM | Tmax ([1]; Sprague-Dawley, po, per os, plasma, read-out: Tmax): 1 h | AUC(0-t) ([1]; Sprague-Dawley, plasma, po, per os): 4430 ng·h/mL | bioavailability ([1]; Sprague-Dawley, plasma, po, per os 10 mg/kg): 100% | Cmax ([1]; Sprague-Dawley, plasma, po, per os, plasma, read-out: Cmax): 1860 ng/mL | CSF Cmax ([1]; per os, CSF): 436.7 ng/mL | Brain Cmax ([1]; per os, brain): 593.1 ng/mL | Plasma (Human): percent of compound remaining (Plasma stability (Human)): 74% | NMDAR2D A: % maximal [3H]MK-801 binding relative to 1 mM glycine (NMDAR2D [2]): ++ (>100%=++) | EC50 (NMDAR2D [3]): < 1 nM | % reduction in float time (Sprague Dawley rats; 1 wk post-dose): 46% | Significance vs. vehicle (Sprague Dawley rats; 1 wk post-dose): Yes | % reduction in float time (Sprague Dawley rats; 1 h post-dose): 55% | Significance vs. vehicle (Sprague Dawley rats; 1 h post-dose): Yes | Microsomal (Human): percent of compound remaining [4]: 100% | Microsomal (Rat): percent of compound remaining [5]: 94% | NMDAR2A B: log EC50 (NMDAR2A): − | Plasma (Rat): percent of compound remaining (Plasma stability (Rat)): 95% | EC50 (NMDAR2C; read-out: NMDAR2C B: log EC50 (converted)): < 1 nM | NMDAR2C A: % maximal [3H]MK-801 binding relative to 1 mM glycine (NMDAR2C; relative to 1 mM glycine): + (<100%=+) | AUC(0-t) [6]: 4000 ng·h/mL | clearance [6]: 8.79 mL/min/kg | half-life [6]: 1.61 h | Cmax ([6]; read-out: Cmax): 2140 ng/mL | Vd ([6]; read-out: Vss): 0.94 L/kg
